{
  "source": "patent US4931475A",
  "about": "“Cholagogue and/or gallstone solubilizer” (Hiya Pharmaceutical Co., Ltd., priority 1985, dated 1990)",
  "key": {"[1]": {"tested_on": "secretion of bile", "assay": "Activity on the secretion of bile, intraduodenal administration", "assay_type": "in vivo, Male Wister rats", "details": "5 hours", "description": "A. Intraduodenal administration\nMale Wister rats weighing 200 to 250 g were used, ten rats in each group. Each rat was fasted for 6 to 8 hours, and was thereafter fastened as laid on its back to a fixed table under ethereal anesthesia. The abdomen was cut open along the midline. A polyethylene tube was inserted into and attached to the common bile duct. The rat was then allowed to stand for a period of time (1 hour) to assure stabilized flow of bile. The amount of bile flowing out for the following period of 30 minutes was taken as 100 to serve as a control amount for the subsequent flow of bile.\nNext, the drug to be tested was intraduodenally administered to the rat, and the amount of bile flowing out from the polyethylene tube dropwise was measured over a period of 5 hours. The amount was measured for every 30-minute period of the first 2 hours after the administration of the drug and then for every one-hour period. Sodium dehydrocholate, bile acid preparation serving as a known cholagogue, was used as a control drug.\nThe dose was 200 mg/kg (weight of rat) for bornyl glucoside, or 100 mg (drug)/kg (weight of rat) for other borneols and sodium dehydrocholate. The drugs were used as suspended in 4% aqueous solution of gum arabic. Experimental results"}, "[2]": {"tested_on": "bile acid contents of bile", "assay": "Variations in bile acid contents of bile (high-speed liquid chromatography)", "assay_type": "in vivo, rats", "details": "intraduodenal, 100 mg/kg, first one-hour period, pre-administration 30 minutes = 100", "source_text": "C. Variations in bile acid contents of bile\nEach portion of bile obtained during the first one-hour period of measurement in the foregoing bile secretion experiment (1)-A by intraduodenal administration was partly collected, then diluted 40-fold with freshly distilled methanol and thereafter filtered with use of a 0.45-micron membrane filter (product of Toyo Roshi). The filtrate was subjected to high-speed liquid chromatography according to the method of Okuyama S. et al., Chemistry Letters, p 1443 (1979). The bile acid contents of the bile flowing out during each measurement period were determined with reference to calibration curves prepared in advance for cholic acid, ursodeoxycholic acid, chenodeoxycholic acid and deoxycholic acid, and also for glycine conjugates and taurine conjugates of these acids. The total bile acid content was determined from the results. The bile acid contents and the total bile acid content of the bile flowing out during the period of 30 minutes before the administration of the test drug were taken as 100."}, "[3]": {"assay": "Acute toxicity test", "design": "species or system male dd-Y mice", "details": "mouse, in vivo; oral, mice, 7 days, Litchfield-Wilcoxon method, 95% reliability limit", "description": "The drug to be tested was orally given to male dd-Y mice weighing about 20 g, ten mice in each group. The mice were thereafter observed for 7 days to determine the LD50 from the number of resulting deaths. During the 7-day observation period, the animals were allowed free access to diets and water. The LD50 was determined according to the Litchfield-Wilcoxon method."}, "[4]": {"details": "naturally occurring, used in oriental medicine as \"Ryuno\"; cited from earlier work"}, "[5]": {"tested_on": "cholesterol content of bile", "assay": "Variations in the cholesterol content of bile (Cholesterol CII-Test Wako)", "assay_type": "in vivo, rats", "details": "intraduodenal, 100 mg/kg, first one-hour period, pre-administration 30 minutes = 100", "description": "(§1) B. Variations in the phospholipid and cholesterol contents of bile\n(§2) Portions of the bile obtained during the first one-hour period of measurement in the bile secretion experiment (1)-A by intraduodenal administration were tested for phospholipid using Phospholipid B-Test Wako (enzyme method, Wako Pure Chemical Industries Ltd.) and for cholesterol using Cholesterol CII-Test Wako measuring kit(COD-p-chlorophenol color development method, Wako Pure Chemical Industries Ltd.). For the quantitative determination of phospholipid and cholesterol, a blank test was conducted, and a calibration curve prepared in advanced was used. The phospholipid and cholesterol contents of the bile flowing out during the period of 30 minutes before the administration of the test drug were taken as 100."}, "[6]": {"tested_on": "solids weight of bile", "assay": "Variations in the weight of solids in discharged bile", "assay_type": "in vivo, rats", "details": "intraduodenal, 100 mg/kg, 5 hours, pre-administration 30 minutes = 100", "description": "A. Variations in the weight of solids in discharged bile\nThe bile portions obtained from the bile secretion experiment (1)-A by intraduodenal administration were collected respectively for the observation periods. A quantity of each bile portion was freeze-dried, and the solids weight was measured to determine the variations in the solids weight of bile over the 5-hour period. The solids weight of bile obtained during the 30-minute period before the administration of the test drug, e.g. (+)-borneol, was calculated as 100."}, "[7]": {"tested_on": "phospholipid content of bile", "assay": "Variations in the phospholipid content of bile (Phospholipid B-Test Wako)", "assay_type": "in vivo, rats", "details": "intraduodenal, 100 mg/kg, first one-hour period, pre-administration 30 minutes = 100", "description": "as §1, §2"}, "[8]": {"tested_on": "secretion of bile", "assay": "Activity on the secretion of bile, oral administration", "assay_type": "in vivo, rats", "details": "5 hours", "description": "B. Oral Administration As in the case of intraduodenal administration, the drug to be tested was orally administered to rats each having a polyethylene tube attached to the common bile duct, and the amount of bile flowing out was observed over a period of 5 hours."}},
  "data": [
    {"smiles": "CC1(C)[C@@H]2CC[C@@]1(C)[C@H](O)C2", "note": "(relative stereo) [isoborneol]", "values": [
      {"measurement": "cholagogic effect (amount of bile flowing out)", "setting": "[1]; 100 mg/kg", "value": "also had a cholagogic effect"}
    ]},
    {"smiles": "CC1(C)C2CCC1(C)C(OC1O[C@H](CO)[C@@H](O)[C@H](O)[C@H]1O)C2", "note": "(some centres unmarked) [bornyl glucoside]", "values": [
      {"measurement": "cholagogic effect (amount of bile flowing out)", "setting": "[1]; 200 mg/kg (bornyl glucoside)", "value": "also had a cholagogic effect"}
    ]},
    {"smiles": "CC(=O)OC1CC2CCC1(C)C2(C)C", "note": "(centres unmarked) [bornyl acetate]", "values": [
      {"measurement": "cholagogic effect (amount of bile flowing out)", "setting": "[1]; 100 mg/kg", "value": "also had a cholagogic effect"}
    ]},
    {"smiles": "CC1(C)[C@@H]2CC[C@@]1(C)[C@@H](O)C2", "note": "(relative stereo) [(±)-borneol]", "values": [
      {"measurement": "cholagogic effect (amount of bile flowing out)", "setting": "[1]; 100 mg/kg", "value": "also had a cholagogic effect"}
    ]},
    {"smiles": "CC(=O)O[C@@H]1C[C@H]2CC[C@]1(C)C2(C)C", "note": "[isobornyl acetate]", "values": [
      {"measurement": "cholagogic effect (amount of bile flowing out)", "setting": "[1]; 100 mg/kg", "value": "also had a cholagogic effect"}
    ]},
    {"smiles": "CC1(C)[C@H]2CC[C@]1(C)[C@H](O)C2", "note": "[(-)-borneol]", "values": [
      {"measurement": "cholagogic effect (amount of bile flowing out)", "setting": "[1]; 100 mg/kg", "value": "also had a cholagogic effect"}
    ]},
    {"smiles": "CC1(C)[C@@H]2CC[C@@]1(C)[C@@H](O)C2", "note": "[(+)-borneol]", "values": [
      {"measurement": "bile acid contents of bile", "setting": "[2]", "value": "secretion of remarkably increased amounts of chenodeoxylic acid and like bile acids"},
      {"measurement": "total bile acid content of bile", "setting": "[2]", "value": "remarkable increase in the total bile acid content"},
      {"measurement": "cholagogic effect (amount of bile flowing out)", "setting": "[1]; 100 mg/kg", "value": "sustained great cholagogic effect over the entire observation period of 5 hours"},
      {"measurement": "LD50 at 168 h", "setting": "[3]", "value": "≥ 10000", "unit": "mg/kg"},
      {"measurement": "empirically known pharmacological activities", "setting": "[4]", "value": "analgesic, anti-inflammatory, sedative and anti-palpitation effects and central depressant activity"},
      {"measurement": "cholesterol content of bile", "setting": "[5]", "value": "approximately at the same level as those of the normal bile"},
      {"measurement": "variations in the solids weight of bile", "setting": "[6]", "value": "sustained effect to increase the amount of biliary constituents"},
      {"measurement": "phospholipid content of bile", "setting": "[7]", "value": "approximately at the same level as those of the normal bile"},
      {"measurement": "cholagogic effect (amount of bile flowing out)", "setting": "[8]", "value": "more sustained greater cholagogic effect than the control drug"}
    ]},
    {"smiles": "C[C@H](CCC(=O)O)[C@H]1CC[C@H]2[C@@H]3C(=O)C[C@@H]4CC(=O)CC[C@]4(C)[C@H]3CC(=O)[C@]12C", "note": "[sodium dehydrocholate, reference compound]", "values": [
      {"measurement": "bile acid contents of bile", "setting": "[2]", "value": "slight transient tendency to produce increased amounts of bile acids including deoxycholic acid only 30 minutes after the administration"},
      {"measurement": "cholagogic effect (amount of bile flowing out)", "setting": "[1]; 100 mg/kg", "value": "transient great cholagogic effect 30 minutes after the administration"},
      {"measurement": "LD50 at 168 h", "setting": "[3]", "value": 2500, "unit": "mg/kg"},
      {"measurement": "cholesterol content of bile", "setting": "[5]", "value": "tendency for the phospholipid and cholesterol contents of bile to increase"},
      {"measurement": "phospholipid content of bile", "setting": "[7]", "value": "tendency for the phospholipid and cholesterol contents of bile to increase"}
    ]}
  ]
}
